In PMC12475274, “Harnessing indole scaffolds to identify small-molecule IRE1α inhibitors modulating XBP1 mRNA splicing” (Nature Communications, 2025):
Several values for one entry are separate records, joined by “and”; a condition that tells them apart may be missing. Equal entries are not always repeated. Entries after “also recorded” stand apart in the source; their conditions may differ. Where two headings read alike, the source gives them in different places.

Assays:
[1] = molecular target: T1, dephosphorylated IRE1α (547–977) (Homo sapiens, UniProt O75460); assay: FRET-based IRE1α RNase activity assay, dephosphorylated IRE1α; type: biochemical
T1 construct: Human IRE1α kinase and RNase domain (residues 547–977) was subcloned into pLIB plasmid; His tag (with TEV cleavage site) (N, cleaved yes); made in house; host or cells: Sf9 insect cells, baculovirus (Bac-to-Bac)
T1 sequence (O75460 547-977): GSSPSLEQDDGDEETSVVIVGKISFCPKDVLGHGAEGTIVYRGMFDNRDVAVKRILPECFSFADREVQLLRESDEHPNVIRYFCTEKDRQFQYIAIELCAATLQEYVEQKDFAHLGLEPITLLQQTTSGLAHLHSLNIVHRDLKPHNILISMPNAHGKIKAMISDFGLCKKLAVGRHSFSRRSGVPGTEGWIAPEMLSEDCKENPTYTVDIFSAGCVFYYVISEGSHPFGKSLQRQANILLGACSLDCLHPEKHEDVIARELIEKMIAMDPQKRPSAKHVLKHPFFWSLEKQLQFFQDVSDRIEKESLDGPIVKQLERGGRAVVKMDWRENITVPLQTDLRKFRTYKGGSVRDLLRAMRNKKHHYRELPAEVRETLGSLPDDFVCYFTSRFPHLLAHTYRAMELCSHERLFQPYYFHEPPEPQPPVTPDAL
Method in brief: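 Dephosphorylated human IRE1α (residues 547–977, Sf9-expressed, λ-phosphatase treated), 40 nM, preincubated 30 min with compound at room temperature, then 100 nM FAM/BHQ1 XBP1 RNA added in HEPES pH 7.5 buffer. Fluorescence (485/535 nm) read kinetically for 1 h; inhibition from linear-phase slopes versus DMSO, fitted to IC50.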

dephosphorylated IRE1α = molecular target: T2, dephosphorylated IRE1α (Homo sapiens, UniProt O75460); assay: Isothermal titration calorimetry (ITC), incl. competitive ITC; type: binding
T2 construct: Human IRE1α kinase and RNase domain (residues 547–977) was subcloned into pLIB plasmid; His tag (with TEV cleavage site) (N, cleaved yes); made in house; host or cells: Sf9 insect cells, baculovirus (Bac-to-Bac)
T2 sequence (O75460 547-977): as above
Experimental: The dephosphorylated IRE1α protein was used directly after purification, ITC experiments were carried out at 25 °C using MicroCal PEAQ-ITC system (Malvern) in buffer 25 mM HEPES pH 7.5, 250 mM NaCl, 1 mM TCEP, 5% glycerol, 1% DMSO. The solution was diluted to a final 1% DMSO in the same buffer as for the protein. Protein and compound solution were degassed before loading to the cell and syringe respectively. Unless otherwise noted, 200 μM of compound was loaded into the syringe and 10 μM of IRE1α protein was loaded into the sample cell. For competitive ITC, the protein was incubated with the indicated compound at 25 °C (final 1% DMSO) before loading to the cell. Instrument settings were: reference power 10 μcal/s, feedback high, stir speed 750 rpm, initial delays 60 s, injection spacing 150 s, injection duration 4 s. All experiments were performed with a single 0.4 μL injection followed by 18 (or 15), 2 μL injections. Data were analyzed using MicroCal PEAQ-ITC analysis software. The one set of sites fitting model is used for the calorimetry data analysis, with cell concentration and syringe concentration as the input parameters. For compound IA01, the N was set to 1 to improve the fit.

[2] = molecular target: T3, p-IRE1α dimerization and oligomerization (Homo sapiens, UniProt O75460); assay: DSS cross-linking assay with mass photometry; conditions: 100 μM compound, DSS crosslinking
T3 construct: Human IRE1α kinase and RNase domain (residues 547–977) was subcloned into pLIB plasmid; His tag (with TEV cleavage site) (N, cleaved yes); made in house; host or cells: Sf9 insect cells, baculovirus (Bac-to-Bac)
T3 sequence (O75460 547-977): as above
Experimental: Phosphorylated IRE1α (p-IRE1α) and compounds were incubated 30 min at room temperature, with a final concentration of 2 μM p-IRE1α and 100 μM of the indicated compound, in a buffer containing 20 mM HEPES, pH 7.5, 50 mM KOAc, 1 mM MgOAc2, 1 mM DTT, 0.05% v/v TritonX-100, in a total reaction volume of 20 μL. After incubation, DSS (disuccinimidyl suberate, Thermo Fisher, A39267) was added to the reaction at a final concentration of 250 μM to induce crosslinking at room temperature for 1 h. Tris (pH 7.5) was added to a final concentration of 50 mM to stop the reaction. Samples were further measured with a mass photometry instrument (Refeyn Ltd). The PBS buffer was used for the mass photometry measurement. The instrument was calibrated with BSA and TG protein mixture in PBS. Samples were diluted to a protein concentration of 100 nM with buffer before measurement. Then, 18 μL PBS buffer was added to the center of the gasket on the coverslips to check and find the focus. Afterward, 2 μL of the diluted sample was added, mixed, and measured. Data were analyzed using Discover MP software, for each sample, results from 3 individual measurements were merged.

[3] = FRET assay, RNase activity, mean (± SEM), read-out: IRE1α IC50
[4] = IRE1a, IA34 0.000282 μM, Supplementary Fig. 3b, replicate values
[5] = IRE1a, IA34 1.85185 μM, Supplementary Fig. 3b, replicate values
[6] = FRET assay, source data, unit from Fig. 3 / sheet Fig. 2b, read-out: IRE1a IC50, individual replicates (n1-n4)
[7] = titrating 200 μM compound into 10 μM IRE1α, no competitor (DMSO), read-out: KD (ITC)
[8] = FRET assay at 50 μM, source data, 50 µM
[9] = 200 μM compound into 10 μM IRE1α, no competitor

Structure (SMILES): CCOC(=O)Nc1cccc2c(Oc3ncccc3-c3ccnc(N[C@H]4CCCNC4)n3)c(C)ccc12 [Compound G1749, reference compound]
- effect on IRE1α RNase activity in the FRET assay [1]: activating IRE1α activity
- activity (fold change) ([1]; IRE1a, 5.55556 μM): 6.184 fold change and 6.333 fold change and 5.999 fold change and 6.267 fold change
- activity (fold change) ([1]; IRE1a, 16.6667 μM): 6.104 fold change and 5.222 fold change and 7.238 fold change and 6.279 fold change
- activity (fold change) ([1]; IRE1a, 50 μM): 5.173 fold change and 5.3757 fold change and 6.203 fold change and 5.356 fold change
- KD (competition ITC) (dephosphorylated IRE1α; G1749 to IRE1α with 1 mM IA107, ND, not detectable): did not show a detectable binding
- effect on p-IRE1α dimerization/oligomerization [2]: inhibited the dimerization; also recorded: interfere with the dimerization

Structure (SMILES): COc1ccc2c(c1)c(CCC(=O)O)c(C)n2C(=O)c1ccc2ccccc2c1 [IA34]
- IRE1α IC50 ([1]; FRET assay, RNase activity, mean (± SEM)): IC₅₀ not reached
- IC50 [1, 3]: > 20000 nM
- inhibition at 0.000282 µM [1, 4]: 11%
- inhibition(%) [1, 4]: 17.14% and 20.16% and 15.89%
- inhibition(%) ([1]; IRE1a, IA34 0.000847 μM, Supplementary Fig. 3b, replicate values): 11.75% and 10.72% and 4.25% and 16.96%
- inhibition(%) ([1]; IRE1a, IA34 0.00254 μM, Supplementary Fig. 3b, replicate values): 11.91% and 15.33% and 6.07% and 5.16%
- inhibition(%) ([1]; IRE1a, IA34 0.007621 μM, Supplementary Fig. 3b, replicate values): 4.65% and -4.78% and -13.00% and -9.42%
- inhibition(%) ([1]; IRE1a, IA34 0.022862 μM, Supplementary Fig. 3b, replicate values): -15.56% and -32.65% and -11.50% and -23.95%
- inhibition(%) ([1]; IRE1a, IA34 0.068587 μM, Supplementary Fig. 3b, replicate values): 0.30% and -2.50% and 3.18% and 1.26%
- inhibition(%) ([1]; IRE1a, IA34 0.205761 μM, Supplementary Fig. 3b, replicate values): 4.13% and 5.59% and 2.33% and -2.10%
- inhibition(%) ([1]; IRE1a, IA34 0.617284 μM, Supplementary Fig. 3b, replicate values): 17.19% and 19.37% and 7.03% and 9.32%
- inhibition at 1.85185 µM [1, 5]: 10.8%
- inhibition(%) [1, 5]: 18.23% and 17.28% and 17.87%
- inhibition(%) ([1]; IRE1a, IA34 5.55556 μM, Supplementary Fig. 3b, replicate values): 27.30% and 30.30% and 1.63% and 11.62%
- inhibition(%) ([1]; IRE1a, IA34 16.6667 μM, Supplementary Fig. 3b, replicate values): 11.08% and 14.65% and 30.15% and 29.94%
- inhibition(%) ([1]; IRE1a, IA34 50 μM, Supplementary Fig. 3b, replicate values): -1.98% and 7.19% and 5.53% and 17.33%
- binding to IRE1α in ITC (dephosphorylated IRE1α): no binding signal

Structure (SMILES): Cc1c(CCC(=O)O)c2cc(Cl)ccc2n1C(=O)c1ccccc1 [IA141]
- IC50 [1, 3]: 52 nM and 50 nM
- IC50 [1, 6]: 61.7 nM and 34.6 nM and 58.2 nM
- Kd (dephosphorylated IRE1α; [7]): 1820 nM

Structure (SMILES): Cc1ccc2c(c1)c(CCC(=O)O)c(C)n2C(=O)c1ccccc1 [IA147]
- IC50 [1, 3]: 66 nM and 66.4 nM
- IC50 [1, 6]: 90.6 nM and 45.5 nM and 63.2 nM
- Kd (dephosphorylated IRE1α; [7]): 2990 nM

Structure (SMILES): Cc1ccc2c(NS(=O)(=O)c3ccccc3Cl)cccc2c1Oc1ncccc1-c1ccnc(N[C@H]2CCCNC2)n1 [KIRA8]
- IC50 [1, 3]: 21 nM
- effect on p-IRE1α dimerization/oligomerization [2]: interfere with the dimerization; also recorded: inhibited dimerization

Structure (SMILES): CCOC(=O)CCc1c(C)n(C(=O)c2ccccc2)c2ccc(Br)cc12 [IAPD1]
- effect on IRE1α RNase activity in the FRET assay [1]: did not show any detectable activity
- IC50 [1, 3]: > 50000 nM
- effect on IRE1α RNase activity in the FRET assay ([1]; listed as IADP1): did not inhibit the RNase activity

Structure (SMILES): COc1ccc2c(c1)c(CCC(=O)O)c(C)n2C(=O)c1ccccc1 [IA64]
- IC50 [1, 3]: 30 nM and 34.9 nM
- IC50 [1, 6]: 44.1 nM and 36.7 nM and 38.4 nM and 20.4 nM
- Kd (dephosphorylated IRE1α; [7]): 2960 nM

Structure (SMILES): Cc1c(CCC(=O)O)c2cc(Br)ccc2n1C(=O)c1ccccc1 [IA107]
- increase in potency (IRE1α) ([1]; FRET IC50, reference compound not named): 20 fold
- IRE1a inhibition(%), individual measurements ([1]; FRET assay at 16.6667 μM, source data, 16.6667 µM): 96.2448% and 97.4358% and 96.6561% and 93.7071% and 93.3922% and 93.79% and 97.6814%
- inhibition at 16.6667 µM ([1]; FRET assay at 16.6667 μM, source data, read-out: IRE1a inhibition(%), individual measurements): 92.4%
- IRE1a inhibition(%), individual measurements [1, 8]: 89.203% and 96.8587% and 95.5081% and 91.4695% and 84.6077% and 86.1159% and 92.8068%
- inhibition at 50 µM ([1]; FRET assay at 50 μM, source data, read-out: IRE1a inhibition(%), individual measurements): 91.3%
- IC50 [1, 3]: 16 nM and 15.6 nM
- IC50 [1, 6]: 15.5 nM and 17 nM and 14.2 nM
- Kd (dephosphorylated IRE1α; IA107 to IRE1α with 5 μM G1749, read-out: KD (competitive ITC)): 2250 nM
- KD (competitive ITC) (dephosphorylated IRE1α; IA107 to IRE1α with 50 μM G1749, ND, not detectable): did not show detectable binding
- KD (competitive ITC) (dephosphorylated IRE1α; IA107 to IRE1α with 200 μM G1749, ND, not detectable): did not show detectable binding
- Kd (dephosphorylated IRE1α; [7]): 940 nM
- Kd (dephosphorylated IRE1α; titrating 200 μM compound to 20 μM dephosphorylated IRE1α, read-out: KD (ITC)): 1410 nM
- effect on p-IRE1α dimerization/oligomerization [2]: did not inhibit the dimerization and oligomerization; also recorded: did not affect the dimerization and oligomerization

Structure (SMILES): COc1ccc2c(c1)c(CCC(=O)O)c(C)n2C(=O)c1ccc(Cl)cc1 [IA01]
- IRE1a inhibition(%), individual measurements ([1]; FRET assay at 10 μM, source data, 10 µM): 86.3319%
- inhibition at 10 µM ([1]; FRET assay at 10 μM, source data, read-out: IRE1a inhibition(%), individual measurements): 85.9%
- inhibition at 50 µM ([1]; FRET assay at 50 μM, mean (± SEM), read-out: IRE1α inhibition%): 97.1%
- IRE1a inhibition(%), individual measurements [1, 8]: 92.8762% and 91.6346% and 94.1417% and 92.7378% and 93.1088% and 89.7986% and 113.165% and 103.517% and 100.196% and 112.293% and 71.6431% and 81.6993%
- IC50 [1, 3]: 300 nM
- IC50 [1, 6]: 286 nM and 204 nM and 400 nM
- -TΔS (ITC) (dephosphorylated IRE1α; [9]): -2.14 kcal/mol
- N(sites) (ITC) (dephosphorylated IRE1α; [9]): 1
- ΔG (ITC) (dephosphorylated IRE1α; [9]): -7.62 kcal/mol
- ΔH (ITC) (dephosphorylated IRE1α; [9]): -5.48 ± 2.28 kcal/mol
